# Laboratory results as given in patent publication US12268690B2, “Treatments for mutations in acute myeloid leukemia” (OREGON HEALTH & SCIENCE UNIVERSITY, priority 2018, dated 2025).
# System: freshly isolated mononuclear cells from AML samples
# Test: Ex vivo functional drug screen (MTS viability, AUC) on primary AML samples, compared by mutation or clinical group
# Format: cell-based, human
# From the text: This panel contained graded concentrations of a drugs with activity against two-thirds of the tyrosine kinome as well as other non-tyrosine kinase pathways, including MAPKs, PI3K/AKT/mTOR, AMPK, ATM, Aurora kinases, CAMKs, CDKs, GSK3a/b, IκK, PKA, PKC, PLK1, and RAF. In addition, the library contained small molecule inhibitors with activity against the BCL2 family, BRD4, Hedgehog, HSP90, NOTCH/gamma-secretase, proteasome, survivin, STAT3, and WNT/beta-catenin. Drug sensitivity patterns were analyzed with respect to clinical and genetic features of tumors. We compared the average area-under-the curve (AUC) values for each drug between the de novo and transformed samples via a series of single factor ANOVAs. […] In addition, we analyzed the concordance of drug sensitivity patterns with respect to predicted target gene, gene family, or pathway for each drug. […] To create a global view of overall sensitivity or resistance of each case, we generated a heatmap of binary sensitive/resistant calls for each sample to each drug.
# Correlation of drug sensitivity with mutational events was performed by assessing the range of sensitivity of cases with mutation of an individual gene (as well as co-occurring mutational events) versus cases with wild type sequence for that same gene. […] The difference in average drug sensitivity of mutant versus wild type cases for each drug/mutation pair was plotted on the horizontal axis of a volcano plot with a test for statistical significance of the comparison plotted on the vertical axis (corrected for multiple comparison false discovery rate^42; FIG. 4). […] To aid in discovery of potential mutational biomarkers of drug sensitivity, we plotted volcano plots that were specific to each individual drug (versus all possible mutational events) and for each individual gene (versus all possible drugs tested).
# Ex vivo drug screens were performed on freshly isolated mononuclear cells from AML samples as previously described^41.
# Ex vivo functional drug screens were performed on freshly isolated mononuclear cells from AML samples. […] Drug plates were created using inhibitors purchased from LC Laboratories and Selleck Chemicals and master stocks were reconstituted in DMSO and stored at −80° C. […] DMSO control wells and positive control wells containing a drug combination of Flavopiridol, Staurosporine and Velcade were placed on each plate, with the final concentration of DMSO ≤0.1% in all wells. Daughter plates were created using a V&P Scientific 384-well pin tool head operated by the Caliper Sciclone ALH 3000 and equipped with 0.457 mm diameter, 30 nanoliter, slotted stainless steel pins (cat num: FP1NS30). Daughter and destination plates were sealed with pealable thermal seals using a PlateLoc thermal sealer. Destination plates were stored at −20° C. for no more than three months and thawed immediately before use. Primary mononuclear cells were plated across single-agent inhibitor panels within 24 h of collection. […] After 3 d of culture at 37° C. in 5% CO2, MTS reagent (CellTiter96 AQueous One; Promega) was added, optical density was measured at 490 nm, and raw absorbance values were adjusted to a reference blank value and then used to determine cell viability (normalized to untreated control wells).
# A given sample was run on one or more panels and within each panel, the majority of drugs were run without within-panel replicates. […] An additional set of ‘curve-free’ AUCs was computed for sample-inhibitor pairs run on multiple panels.
# Based on the methodology used in our prior drug combination study^36, a probit regression was fit to all possible run groups using the model: (normalized_viability/100)˜1+log 10(concentration) Where for all groups there were N=7 dose-response measurements. The summary measures of curve fit were inspected and cutoffs were devised removing all runs with an AIC >12 and deviance >2.
smiles,measurement,setting,value
"c1cn2cc(-c3ccc4cn[nH]c4c3)nc(Nc3ccc(N4CCOCC4)cc3)c2n1 [Entospletinib, 6-(1H-indazol-6-yl)-N-(4-morpholin-4-ylphenyl)imidazo[1,2-a]pyrazin-8-amine]",drug sensitivity mutant vs wild type (average difference in AUC; top left quadrant of volcano plot),DNMT3A,Entospletinib
same,drug sensitivity mutant vs wild type (average difference in AUC; top left quadrant of volcano plot),DNMT3A:IDH2,Entospletinib (GS-9973)
same,drug sensitivity mutant vs wild type (average difference in AUC; top left quadrant of volcano plot),IDH2,Entospletinib
same,drug sensitivity mutant vs wild type (average difference in AUC; top left quadrant of volcano plot),NPM1,Entospletinib
same,drug sensitivity mutant vs wild type (average difference in AUC; top left quadrant of volcano plot),NPM1:DNMT3A,Entospletinib
same,drug sensitivity mutant vs wild type (average difference in AUC; top left quadrant of volcano plot),NPM1:IDH1,entospletinib
same,drug sensitivity mutant vs wild type (average difference in AUC; top left quadrant of volcano plot),NPM1:IDH2,entospetinib
same,drug sensitivity mutant vs wild type (average difference in AUC; top left quadrant of volcano plot),NPM1:SRSF2,entospetinib
same,drug sensitivity mutant vs wild type (average difference in AUC; top left quadrant of volcano plot),NPM1:TET2: DNMT3A,Entospetinib
same,pattern of drug sensitivity,cases with FLT3-ITD and NPM1,similarly significant pattern of sensitivity
CN1CC[C@H](c2c(O)cc(O)c3c(=O)cc(-c4ccccc4Cl)oc23)[C@H](O)C1 [Flavopiridol],drug sensitivity mutant vs wild type (average difference in AUC; top left quadrant of volcano plot),NRAS,"(GSK1120212), or Flavopiridol"
COc1cc2c(Oc3ccc(NC(=O)C4(C(=O)Nc5ccc(F)cc5)CC4)cc3F)ccnc2cc1OCCCN1CCOCC1 [Foretinib],drug sensitivity mutant vs wild type (average difference in AUC; top left quadrant of volcano plot),FLT3,Foretinib (XL880)
same,drug sensitivity mutant vs wild type (average difference in AUC; top left quadrant of volcano plot),FLT3_ITD:TET2:DNMT3A,Foretinib
same,drug sensitivity mutant vs wild type (average difference in AUC; top left quadrant of volcano plot),FLT3_ITD:WT1,foretinib
same,drug sensitivity mutant vs wild type (average difference in AUC; top left quadrant of volcano plot),IDH2,Foretinib
same,drug sensitivity mutant vs wild type (average difference in AUC; top left quadrant of volcano plot),NPM1,Foretinib
same,drug sensitivity mutant vs wild type (average difference in AUC; top left quadrant of volcano plot),NPM1:DNMT3A,foretinib
same,drug sensitivity mutant vs wild type (average difference in AUC; top left quadrant of volcano plot),NPM1:FLT3,Foretinib
same,drug sensitivity mutant vs wild type (average difference in AUC; top left quadrant of volcano plot),NPM1:FLT3_ITD,foretinib
same,drug sensitivity mutant vs wild type (average difference in AUC; top left quadrant of volcano plot),NPM1:FLT3_ITD:DNMT3A,foretinib
same,drug sensitivity mutant vs wild type (average difference in AUC; top left quadrant of volcano plot),NPM1:SRSF2,Foretinib
same,drug sensitivity mutant vs wild type (average difference in AUC; top left quadrant of volcano plot),SMC1A,foretinib
CCn1c(-c2nonc2N)nc2c(C#CC(C)(C)O)ncc(OC[C@H]3CCCNC3)c21 [GSK690693],drug sensitivity mutant vs wild type (average difference in AUC; top left quadrant of volcano plot),MLLT3.KMT2A,GSK690693
CNC(=O)c1c(F)cccc1Nc1nc(Nc2cc3c(cc2OC)CCN3C(=O)CN(C)C)nc2[nH]ccc12 [GSK-1838705A],drug sensitivity mutant vs wild type (average difference in AUC; top left quadrant of volcano plot),IDH2,GSK-1838705A
same,drug sensitivity mutant vs wild type (average difference in AUC; top left quadrant of volcano plot),NPM1:IDH2,GSK-1838705A
same,drug sensitivity mutant vs wild type (average difference in AUC; top left quadrant of volcano plot),NPM1:SRSF2,GSK-183705A
same,drug sensitivity mutant vs wild type (average difference in AUC; top left quadrant of volcano plot),SMC1A,GSK-1838705A
same,drug sensitivity mutant vs wild type (average difference in AUC; top left quadrant of volcano plot),SRSF2:IDH2,GSK-1838705A
COc1ccc(COc2ccc(Cc3cnc(N)nc3N)cc2OC)cc1 [GW-2580],drug sensitivity mutant vs wild type (average difference in AUC; top left quadrant of volcano plot),IDH2,GW-2580
same,drug sensitivity mutant vs wild type (average difference in AUC; top left quadrant of volcano plot),NPM1:IDH2,GW-2580
same,drug sensitivity mutant vs wild type (average difference in AUC; top left quadrant of volcano plot),NPM1:SRSF2,gw-2580
COc1cc2ncnc(Nc3ccc(F)c(Cl)c3)c2cc1OCCCN1CCOCC1 [Gefitinib],drug sensitivity mutant vs wild type (average difference in AUC; top left quadrant of volcano plot),FLT3_ITD,gefitinib
same,drug sensitivity mutant vs wild type (average difference in AUC; top left quadrant of volcano plot),FLT3_ITD:SRSF2,Gefitinib
same,drug sensitivity mutant vs wild type (average difference in AUC; top left quadrant of volcano plot),FLT3_ITD_IHD2,gefitinib
same,drug sensitivity mutant vs wild type (average difference in AUC; top left quadrant of volcano plot),NPM1,Gefitinib
same,drug sensitivity mutant vs wild type (average difference in AUC; top left quadrant of volcano plot),NPM1:DNMT3A,Gefitinib
same,drug sensitivity mutant vs wild type (average difference in AUC; top left quadrant of volcano plot),NPM1:FLT3_ITD,gefitinib
same,drug sensitivity mutant vs wild type (average difference in AUC; top left quadrant of volcano plot),NPM1:FLT3_ITD:DNMT3A,gefitinib
same,drug sensitivity mutant vs wild type (average difference in AUC; top left quadrant of volcano plot),NPM1:IDH2,gefitinib
same,drug sensitivity mutant vs wild type (average difference in AUC; top left quadrant of volcano plot),NPM1:SRSF2,gefitinib
Cn1c2ccccc2c2c3c(c4c5ccccc5n(CCC#N)c4c21)CNC3=O [Go6976],drug sensitivity mutant vs wild type (average difference in AUC; top left quadrant of volcano plot),CBFB.MYH11,Go6976
CC(C)n1nc(-c2ccc3oc(N)nc3c2)c2c(N)ncnc21 [INK-128],drug sensitivity mutant vs wild type (average difference in AUC; top left quadrant of volcano plot),FLT3_ITD,INK-128
same,drug sensitivity mutant vs wild type (average difference in AUC; top left quadrant of volcano plot),NPM1:FLT3_ITD,ink-128
"Nc1nc(Nc2ccc(S(N)(=O)=O)cc2)nn1C(=O)c1c(F)cccc1F [JNJ-7706621, 4-((5-amino-1-(2,6-difluorobenzoyl)-1H-1,2,4-triazol-3-yl)amino)benzenesulfonamide]",drug sensitivity mutant vs wild type (average difference in AUC; top left quadrant of volcano plot),NPM1:DNMT3A,JNJ-7706621
same,drug sensitivity mutant vs wild type (average difference in AUC; top left quadrant of volcano plot),NPM1:IDH1,JNJ-7706621
Cn1cc(-c2ccc3nnc(C(F)(F)c4ccc5ncccc5c4)n3n2)cn1 [JNJ-38877605],drug sensitivity mutant vs wild type (average difference in AUC; top left quadrant of volcano plot),BCOR:RUNX1,JNJ-38877605
COc1cc(Oc2ccnc3cc(OC)c(OC)cc23)ccc1NC(=O)NC(C)c1nccs1 (stereo not drawn) [KI20227],drug sensitivity mutant vs wild type (average difference in AUC; top left quadrant of volcano plot),NPM1:SRSF2:IDH2,KI20227
O=c1cc(-c2cccc3c2Sc2ccccc2S3)oc(N2CCOCC2)c1 [KU-55933],drug sensitivity mutant vs wild type (average difference in AUC; top left quadrant of volcano plot),ZRSR2,KU-55933
CS(=O)(=O)CCNCc1ccc(-c2ccc3ncnc(Nc4ccc(OCc5cccc(F)c5)c(Cl)c4)c3c2)o1 [Lapatinib],drug sensitivity mutant vs wild type (average difference in AUC; top left quadrant of volcano plot),FLT3_ITD_IHD2,lapitinib
same,drug sensitivity mutant vs wild type (average difference in AUC; top left quadrant of volcano plot),NPM1,Lapatinib
same,drug sensitivity mutant vs wild type (average difference in AUC; top left quadrant of volcano plot),NPM1:FLT3_ITD,lapatinib
same,drug sensitivity mutant vs wild type (average difference in AUC; top left quadrant of volcano plot),NPM1:IDH2,Lapatinib
same,drug sensitivity mutant vs wild type (average difference in AUC; top left quadrant of volcano plot),NPM1:SRSF2,Lapatinib
same,drug sensitivity mutant vs wild type (average difference in AUC; top left quadrant of volcano plot),SMC1A,lapatinib
Nc1cccc2c1CN(C1CCC(=O)NC1=O)C2=O (stereo not drawn) [Lenalidomide],drug sensitivity mutant vs wild type (average difference in AUC; top left quadrant of volcano plot),NPM1,Lenalidomide
same,drug sensitivity mutant vs wild type (average difference in AUC; top left quadrant of volcano plot),NPM1:SRSF2,lenalidomide
COc1cc2nccc(Oc3ccc(NC(=O)NC4CC4)c(Cl)c3)c2cc1C(N)=O [Lenvatinib],drug sensitivity mutant vs wild type (average difference in AUC; top left quadrant of volcano plot),DNMT3A,Lenvatinib
same,drug sensitivity mutant vs wild type (average difference in AUC; top left quadrant of volcano plot),FLT3_ITD,lanvatinib
same,drug sensitivity mutant vs wild type (average difference in AUC; top left quadrant of volcano plot),IDH2,Lenvatinib
same,drug sensitivity mutant vs wild type (average difference in AUC; top left quadrant of volcano plot),NPM1,Levatinib
same,drug sensitivity mutant vs wild type (average difference in AUC; top left quadrant of volcano plot),NPM1:DNMT3A,Lenvatinib
same,drug sensitivity mutant vs wild type (average difference in AUC; top left quadrant of volcano plot),NPM1:DNMT3A:FLT3,lenvantinib
same,drug sensitivity mutant vs wild type (average difference in AUC; top left quadrant of volcano plot),NPM1:FLT3_ITD,lenvatinib
same,drug sensitivity mutant vs wild type (average difference in AUC; top left quadrant of volcano plot),NPM1:IDH2,lenvatinib
same,drug sensitivity mutant vs wild type (average difference in AUC; top left quadrant of volcano plot),NPM1:SRSF2,lenvatinib
same,drug sensitivity mutant vs wild type (average difference in AUC; top left quadrant of volcano plot),NPM1:TET2: DNMT3A,Lenvatinib
NC1(c2ccc(-c3nc4ccn5c(=O)[nH]nc5c4cc3-c3ccccc3)cc2)CCC1 [MK-2206],drug sensitivity mutant vs wild type (average difference in AUC; top left quadrant of volcano plot),WT1,MK-2206
COc1c(Cl)cc2c([nH]c3cnccc32)c1NC(=O)c1cccnc1C [MLN120B],drug sensitivity mutant vs wild type (average difference in AUC; top left quadrant of volcano plot),NPM1:IDH2,MLN120B
same,drug sensitivity mutant vs wild type (average difference in AUC; top left quadrant of volcano plot),NPM1:SRSF2,MLN120B
